Assay results as given in patent US8536336B2, “Prodrug compounds useful as cannabinoid ligands” (AbbVie Inc., priority 2009, dated 2013).
In brackets after ≈: the same amount, converted by molar mass.

What was measured:
[1] = Solubility of prodrug in water or 0.1 N aqueous HCl (HPLC of filtrate); conditions: thermodynamic from solid
Method: (§1) Approximately 3 mg of prodrug was weighed into a vial and 750 μL of water or 0.1 N aqueous HCl was added. The mixtures were vortexed to wet the solids. The mixtures were equilibrated for 1 hour with gentle agitation in a constant temperature water bath (T=25° C. for water samples and T=37° C. for 0.1 N HCl samples). After equilibration, the mixtures were visually inspected to assure that the amount of excess solid was sufficient to permit re-characterization. If not, solubility was reported as greater than the weighed concentration of prodrug (concentrations were confirmed by HPLC). The solid phase was then separated from the liquid phase by filtration through a 13 mm 0.45 μm GHP syringe filter (Pall Corporation). The filtrate was diluted as needed for quantification of the material studied by HPLC, and the concentration of the filtrate was reported as the solubility of the prodrug in the given medium.

physchem = conditions: thermodynamic from solid
Method: as §1

[2] = In vivo regeneration of the parent compound after oral dosing of prodrug (plasma, HPLC-MS/MS); set-up: species or system Sprague-Dawley rats; conditions: rat, oral aqueous formulation by gavage, blood samples for 24 hours
Method: Male Sprague-Dawley rats, weighing 250-400 g, were obtained from Charles Rivers Laboratories. For the initial screening, each prodrug was evaluated in one group of three rats. All rats received an oral aqueous formulation (suspension or solution), administered by gavage. Sequential blood samples were obtained from a tail vein of each animal for 24 hours after dosing. Plasma was separated by centrifugation and stored frozen until analysis. Compounds were selectively removed from the plasma using protein precipitation followed by reverse phase HPLC with MS/MS detection for quantitation. Attempts were made to measure both the prodrug and the parent compounds in each sample.

[3] = 0.1 N aqueous HCl, 37 °C, simulated gastric fluid

| SMILES | solubility at 1 h [1, 3] | solubility at 1 h ([1]; water, 25 °C) | solubility at 1 h (physchem; 25 °C, water) | solubility at 1 h (physchem; 37 °C, simulated gastric fluid) | Parent (Example 18) detected in plasma after dosing the prodrug [2] | Prodrug detected in plasma after dosing the prodrug [2] |
| --- | --- | --- | --- | --- | --- | --- |
| CCCCn1/c(=N/C(=O)c2cc(C(F)(F)F)ccc2OC[C@H](C)O)sc2cc[n+](COC(C)=O)cc21.[Br-] [Example 1, (2Z)-5-[(acetyloxy)methyl]-3-butyl-2-{[2-{[(2S)-2-hydroxypropyl]oxy}-5-(trifluoromethyl)benzoyl]imino}-2,3-dihydro[1,3]thiazolo[4,5-c]pyridin-5-ium bromide] | 2500 µg/mL | 1800 µg/mL |  |  |  |  |
| CCCCn1/c(=N/C(=O)c2cc(C(F)(F)F)ccc2OC[C@H](C)OC(=O)C(C)(C)N)sc2ccncc21 [Example 2, (1S)-2-[2-({[(2Z)-3-butyl[1,3]thiazolo[4,5-c]pyridin-2(3H)-ylidene]amino}carbonyl)-4-(trifluoromethyl)phenoxy]-1-methylethyl 2-methylalaninate] | 4100 µg/mL (≈ 7610 µM) | 2300 µg/mL (≈ 4270 µM) |  |  |  |  |
| CCCCn1/c(=N/C(=O)c2cc(C(F)(F)F)ccc2OC[C@H](C)OC(=O)CN)sc2ccncc21 [Example 3, (1S)-2-[2-({[(2Z)-3-butyl[1,3]thiazolo[4,5-c]pyridin-2(3H)-ylidene]amino}carbonyl)-4-(trifluoromethyl)phenoxy]-1-methylethyl glycinate] |  |  | 1200 µg/mL (≈ 2350 µM) | > 4100 µg/mL |  |  |
| CCCCn1/c(=N/C(=O)c2cc(C(F)(F)F)ccc2OC[C@H](C)O)sc2cc[n+](COC(=O)C(C)(C)C)cc21.[Cl-] [Example 4, (2Z)-3-butyl-5-{[(2,2-dimethylpropanoyl)oxy]methyl}-2-{[2-{[(2S)-2-hydroxypropyl]oxy}-5-(trifluoromethyl)benzoyl]imino}-2,3-dihydro[1,3]thiazolo[4,5-c]pyridin-5-ium chloride] | 200 µg/mL | 3300 µg/mL |  |  |  |  |
| CCCCn1/c(=N/C(=O)c2cc(C(F)(F)F)ccc2OC[C@H](C)O)sc2cc[n+](COC(=O)c3ccccc3)cc21.[Cl-] [Example 5, (2Z)-5-[(benzoyloxy)methyl]-3-butyl-2-{[2-{[(2S)-2-hydroxypropyl]oxy}-5-(trifluoromethyl)benzoyl]imino}-2,3-dihydro[1,3]thiazolo[4,5-c]pyridin-5-ium chloride] | 16 µg/mL | 740 µg/mL |  |  |  |  |
| CCCCn1/c(=N/C(=O)c2cc(C(F)(F)F)ccc2OC[C@H](C)OC(=O)[C@H](C)N)sc2ccncc21 [Example 6, (1S)-2-[2-({[(2Z)-3-butyl[1,3]thiazolo[4,5-c]pyridin-2(3H)-ylidene]amino}carbonyl)-4-(trifluoromethyl)phenoxy]-1-methylethyl L-alaninate] | > 4100 µg/mL | 2300 µg/mL (≈ 4380 µM) |  |  |  |  |
| CCCCn1/c(=N/C(=O)c2cc(C(F)(F)F)ccc2OC[C@H](C)O)sc2cc[n+](COC(=O)N3CCC[C@H]3C(=O)OC)cc21.[Cl-] [Example 7, (2Z)-3-butyl-2-{[2-{[(2S)-2-hydroxypropyl]oxy}-5-(trifluoromethyl)benzoyl]imino}-5-[({[(2S)-2-(methoxycarbonyl)pyrrolidin-1-yl]carbonyl}oxy)methyl]-2,3-dihydro[1,3]thiazolo[4,5-c]pyridin-5-ium chloride] | > 4300 µg/mL | > 4300 µg/mL |  |  |  |  |
| CCCCn1/c(=N/C(=O)c2cc(C(F)(F)F)ccc2OC[C@H](C)O)sc2cc[n+](COC(=O)N(C)C)cc21.[Cl-] [Example 8, (2Z)-3-butyl-5-({[(dimethylamino)carbonyl]oxy}methyl)-2-{[2-{[(2S)-2-hydroxypropyl]oxy}-5-(trifluoromethyl)benzoyl]imino}-2,3-dihydro[1,3]thiazolo[4,5-c]pyridin-5-ium chloride] | > 4000 µg/mL | 3900 µg/mL |  |  |  |  |
| CCCCn1/c(=N/C(=O)c2cc(C(F)(F)F)ccc2OC[C@H](C)OP(=O)(O)O)sc2ccncc21 [Example 9, (1S)-2-[2-({[(2Z)-3-butyl[1,3]thiazolo[4,5-c]pyridin-2(3H)-ylidene]amino}carbonyl)-4-(trifluoromethyl)phenoxy]-1-methylethyl dihydrogen phosphate] | 7 µg/mL | 830 µg/mL |  |  |  |  |
| CCCCn1/c(=N/C(=O)c2cc(C(F)(F)F)ccc2OC[C@H](C)O)sc2cc[n+]([O-])cc21 [Example 12, N-[(2Z)-3-butyl-5-oxido[1,3]thiazolo[4,5-c]pyridin-2(3H)-ylidene]-2-{[(2S)-2-hydroxypropyl]oxy}-5-(trifluoromethyl)benzamide] |  |  |  |  | Measurable concentrations | Measurable concentrations |
| CCCCn1/c(=N/C(=O)c2cc(C(F)(F)F)ccc2OC[C@H](C)OC(=O)CCC(=O)O)sc2ccncc21 [Example 14, 4-({(1S)-2-[2-({[(2Z)-3-butyl[1,3]thiazolo[4,5-c]pyridin-2(3H)-ylidene]amino}carbonyl)-4-(trifluoromethyl)phenoxy]-1-methylethyl}oxy)-4-oxobutanoic acid] |  |  | 73 µg/mL (≈ 132 µM) | 10 µg/mL (≈ 18.1 µM) |  |  |
| CCCCn1/c(=N/C(=O)c2cc(C(F)(F)F)ccc2OC[C@H](C)OC(=O)NCCN(C)C)sc2ccncc21 [Example 15, (1S)-2-[2-({[(2Z)-3-butyl[1,3]thiazolo[4,5-c]pyridin-2(3H)-ylidene]amino}carbonyl)-4-(trifluoromethyl)phenoxy]-1-methylethyl 2-(dimethylamino)ethylcarbamate] | > 4000 µg/mL | 680 µg/mL (≈ 1200 µM) |  |  | Measurable concentrations | Measurable concentrations |
| CCCCn1/c(=N/C(=O)c2cc(C(F)(F)F)ccc2OC[C@H](C)O)sc2ccncc21 [Example 18, N-[(2Z)-3-butyl[1,3]thiazolo[4,5-c]pyridin-2(3H)-ylidene]-2-{[(2S)-2-hydroxypropyl]oxy}-5-(trifluoromethyl)benzamide] | 4.3 µg/mL (≈ 9.48 µM) | < 0.02 µg/mL |  |  |  |  |
